Experimental data from patent US20260133203A1, “DETECTION OF FUMARATE-DERIVED MODIFICATION IN A TEST SAMPLE” (UNIVERSITY OF SOUTH CAROLINA, priority 2017, published 2026).
Where a name gives a salt, the structure may show the parent alone.

System: primary rat neurons
Test: LC-MS/MS identification of succinated proteins in primary rat neurons
Type: cell-based
Conditions: DMF-treated primary rat neurons, modified by DMF or MMF
Protocol: Primary neurons from newborn rat brain cortices were isolated and cultured using an adaptation of methods described previously. Briefly, postnatal day 1 rats were sacrificed by decapitation, the brains were aseptically dissected, and cortices were separated from the rest of the brain in ice-cold Hibernate®-A medium (Life Technologies) containing 2% (v/v) B-27 supplement (Life Technologies) and 0.5 mM glutamine (InvitrogenTM). The tissue was minced in fragments of about 1 mm3 with a scalpel and subjected to digestion with 2 mg/ml papain (Worthington) in the supplemented Hibernate®-A medium for 20 minutes at 30° C. in a shaker incubator set at 100 rpm. […] After a centrifugation at 500 g for 5 min at room temperature, cells were resuspended in NeurobasalTM-A medium containing 0.5 mM glutamine, 2% B-27 supplement, and 5 ng/ml bFGF (InvitrogenTM); counted and plated on 24-well plates pretreated with 0.01% poly-L-lysine (Sigma-AldrichTM) at a density of 200,000 cells/well. […] The protein content in the different samples was determined by the Lowry assay. […] After gel extraction, the peptides were re-suspended in 1% acetic acid and analyzed on a DionexTM […] system (Thermo ScientificTM, Rockford, IL) coupled to an Orbitrap Velos ProTM mass spectrometer (Thermo ScientificTM, Rockford, IL). […]

In the case of `COC(=O)/C=C/C(=O)OC` [DMF, dimethyl fumarate], the “number of succinated proteins confirmed” value is reported as 4.
